“Also recorded” adds a separate entry of the source.
Experiments:
[1] = tested on: T. gondii tachyzoites (strain RH); experiment: Intracellular ROS generation (DCF probe) in T. gondii; type: cell-based, Toxoplasma gondii; conditions: compound at IC50, menadione 20 µM, 40 minutes, vs untreated control
Protocol: ROS detection was performed using the 2′,7′-dichlorodihydrofluorescein diacetate (DCFH2-DA) method ([45]). For the assay, Dm28c trypomastigotes and tachyzoites were seeded in 96-well plates at a density of 10⁶ parasites/mL. In contrast, BeWo cells were seeded at 5 × 10⁴ cells per well, using the previously described culture medium.
After incubation with 20 µM DCFH2-DA for 15 minutes at 37°C, the parasites were centrifuged at 3,500 × g, washed twice with PBS (pH 7.4), and subsequently transferred to Nunc 96-well fluorescence plates. Meanwhile, after 24 hours of incubation at 37°C and 5% CO₂, the culture medium of BeWo cells was replaced, and 20 µM DCFH2-DA solution was added, followed by a 15 minute incubation at 37°C. The cells were then washed with PBS at pH 7.4. As a positive control, 20 µM menadione was used, while the negative control consisted of culture medium without compounds.
Over time, the area under the fluorescence increase curve was determined using Origin 8 software (version 9.2), with normalization relative to the control. The results correspond to three independent experiments' mean ± standard deviation (SD).

[2] = Lipophilicity by reversed-phase TLC (RM); conditions: reverse phase-C18, DMSO/phosphate buffer pH 7.4 (70:30 vol/vol), RM = log[(1/Rf) – 1]
Protocol: Lipophilicity was studied by reversed-phase TLC experiments. Precoated TLC plates SIL RP-18W/UV254 were used and eluted with DMSO/physiological serum (70:30, vol/vol). Stock solutions were prepared in pure DMSO (Aldrich) prior to use. The plates were developed in a closed chromatographic tank, dried, and the spots were located under UV light. The Rf values were averaged from three determinations and converted into RM values via the relationship: RM = log [(1/Rf)−1]

[3] = tested on: T. gondii (RH strain) in HPE; experiment: T. gondii DNA load in infected human placental explants (HPE) by real-time qPCR; type: cell-based, Toxoplasma gondii; conditions: 24 hour post-infection treatment, IC50 concentration
Protocol: The effect on HPE infection of compounds 1 and 7 by Toxoplasma gondii and Trypanosoma cruzi, respectively, was evaluated. To do this, the DNA of the T. gondii or T. cruzi parasite was quantified by infecting HPE for 24 hours under treatment conditions of co-incubation of compounds with the parasite at the same time of infection, and with a 24 hour post-infection treatment. The compound’s IC50 concentration value previously obtained under both conditions was used.
Term human placentas were obtained from uncomplicated pregnancies via scheduled cesarean sections. Each patient provided informed consent for the experimental use of the placenta, and the study was approved by the ethics committee of Hospital San José, Servicio Salud Metropolitano Norte (N° 013/2022). Exclusion criteria for placental use included significant fetal anomalies, placental tumors, intrauterine infection, positive serology for Chagas disease, obstetric pathology, and any other maternal disease. Donor patients tested negative for T. gondii IgG/IgM antibodies. Organs were collected in sterile, cold PBS and processed within 30 minutes after delivery. Maternal and fetal surfaces of each placenta were discarded, and the villous tissue from the central part of the placental cotyledons was isolated. […] All the experiments were performed in triplicate in at least three different placentas.
Cells or HPE were exposed to parasites. […]
Subsequently, cells were exposed to parasites at a 1:1 ratio (cell: parasite) for 24 hours. […] The resulting DNA was quantified using a μDrop Plate DNA quantification system on the Varioskan Flash multimode reader (Thermo Scientific, USA). […]
Amplification was carried out using the CFX96 Touch Deep Well Real-Time PCR Detection System (Biorad, California, USA) with the following cycling program: initial denaturation at 95°C for 3 min, followed by 40 cycles of denaturation at 95°C for 5 s, annealing at 60°C for 30 s, and a dissociation stage ranging from 60°C to 95°C. The relative quantification analysis of the results was expressed as RQ values using the comparative […] (∆∆Ct) ([80]).

[4] = tested on: HPE exposed to T. gondii tachyzoites; experiment: Histopathology of HPE infected with T. gondii; type: cell-based, human; conditions: IC50 concentration
Source text: Cells or HPE were exposed to parasites. […] The following treatment conditions were used in both infection models. […] Untreated cells or HPE served as a negative control, and the compounds’ activity was compared with the reference drugs (NFX and PMN).

[5] = Cytotoxicity on cells (resazurin), BeWo; type: cell-based; conditions: human, BeWo trophoblast cells
Source text: Triton X-100 was used as a positive control, and untreated cells served as a negative control. In addition, the maximum concentration of DMSO was used as a control for the method. […] The obtained values were expressed as IC50([88]).

Compound: C/C(=N\NC(N)=S)c1c(O)c2cc([N+](=O)[O-])ccc2oc1=O [Compound 1, (E)−2-(1-(4-hydroxy-6-nitro-2-oxo-2H-chromen-3-yl)ethylidene)hydrazine-1-carbothioamide]
- ROS generation (DCF fluorescence) [1]: increase in ROS levels, albeit lower than the positive control
- Lipophilicity (RM) [2]: 0.00
- effect on parasite DNA load [3]: not statistically significant; also recorded: did not reduce the parasitic load
- tissue damage in infected HPE (histopathology) ([4]; co-incubation): prevented tissue damage induced by tachyzoites
- tissue damage in infected HPE (histopathology) ([4]; post-infection treatment): did not reduce the parasitic load or mitigate tissue damage
- CC50 at 24 h [5]: 386.9 ± 1 µM
